These results are taken from publication PMC5581131, “The novel sphingosine-1-phosphate receptors antagonist AD2900 affects lymphocyte activation and inhibits T-cell entry into the lymph nodes” (Oncotarget, 2017).

One experiment deals with Molt4. Description: XTT viability assay, Molt4. It counts as cell-based, human. As to conditions: 1-day treatment, compared with Jurkat (>10 μM). Here is the method: Figure 1 AD2900 inhibits human lymphocyte proliferation in allogeneic activation (A, B) The levels of proliferative response of human peripheral blood lymphocytes (PBMCs) after 1-day pretreatment with different concentrations of AD2900, AD2750, YZ138, YZ158, and YZ297 (A) or AD2900, FTY720, and SEW2871 (B) were tested by human allogeneic mixed lymphocyte reaction (MLR) assay, followed by a [3H] thymidine incorporation analysis. (C) Apoptosis of AD2900-treated activated PBMCs was tested by AnnexinV-propidium iodide (PI) FACS analysis following 1-day AD2900 pretreatment and MLR. All the samples were compared to the untreated PBMC control. (D) IFN-γ secretion from activated PBMCs was tested by ELISA following a 1-day AD2900 pretreatment in MLR. On the 5th day of hMLR, supernatants were collected and assayed for the level of IFN-γ. (E) Jurkat cell viability after a 1-day treatment with different concentrations of AD2900, FTY720, and SEW2871 was tested by XTT viability assay. (F) H9, CEM/C1, and Molt4 cell viability after a 1-day treatment with different concentrations of AD2900 was tested by XTT viability assay. Graphs summarize the results of at least three independent experiments. Results of Student’s t-test: *(P < 0.05, two-tailed test), ** (P < 0.01, two-tailed test), *** (P < 0.001, two-tailed test), **** (P < 0.0001, two-tailed test). […]
In general terms: Tetrazolium dyes change colour on reduction, which living cells bring about.

The target in experiment [1] is T1, S1P1 (Homo sapiens, UniProt P21453). Description: S1P1 agonist test, S1P1 CRE-bla CHO cells. The class given is cell-based. The settings on record: S1P1 CRE-BLA CHO cell line. Here is the method:
(§1) Since AD2900 is a sphingolipid analogue with properties that resemble those of S1P, we intended to examine its ability to interact with the S1P receptors. To delineate whether AD2900 can function as an agonistic or antagonistic compound to any of the S1P receptors, we used a high-throughput screening cell-based assay, employing cell lines stably transfected with human S1P receptors 1, 2, 3, 4, or 5 [37]. In this experiment, a compound with an IC50 or EC50 value ≤10 μM for a certain S1P receptor is considered active as an antagonist or an agonist, respectively. The results illustrate that AD2900 acts as an antagonist to all S1P receptors (Table 1, Supplementary Figure 3). […] No agonist activation was evident.
(§2) The S1P1 agonist test and S1P2, S1P3, S1P4, and S1P5 agonist and antagonist tests were conducted as previously described using S1P1 CRE-bla CHO cells, S1P2 CRE-bla CHO cells, S1P3 NFAT-bla CHO cells, Tango™ S1P4 (EDG6)-bla U-2 OS cells, and Tango™ S1P5 ([…])-bla U-2 OS cells. The S1P1 antagonist assay was carried out according to the manufacturer’s instructions using a Tango™ S1P1 (EDG1)-bla U-2 OS Cell-Based Assay (Invitrogen, NY, USA).

The target of another experiment is T2, S1P3 (Homo sapiens, UniProt Q99500).
T2 construct: expressed in transfected cells; host or cells: S1P3 NFAT-bla CHO cells
Description: S1P3 antagonist test, S1P3 NFAT-bla CHO cells. It counts as cell-based. The settings on record: S1P3 NFAT-BLA CHO cell line. How it is done: as §1, §2

The target of experiment [2] is T1, S1P1. The experiment can be described thus: S1P1 antagonist assay, Tango S1P1 (EDG1)-bla U-2 OS cells. The class given is cell-based. The arrangement: Tango fusion partner (protease site + GAL4-VP16 transcription factor); host or cells: Tango S1P1 (EDG1)-bla U-2 OS cells. The settings on record: S1P1 TANGO U-2 OS cell line. Here is the method: as §1, §2

T1 sequence (P21453 whole entry): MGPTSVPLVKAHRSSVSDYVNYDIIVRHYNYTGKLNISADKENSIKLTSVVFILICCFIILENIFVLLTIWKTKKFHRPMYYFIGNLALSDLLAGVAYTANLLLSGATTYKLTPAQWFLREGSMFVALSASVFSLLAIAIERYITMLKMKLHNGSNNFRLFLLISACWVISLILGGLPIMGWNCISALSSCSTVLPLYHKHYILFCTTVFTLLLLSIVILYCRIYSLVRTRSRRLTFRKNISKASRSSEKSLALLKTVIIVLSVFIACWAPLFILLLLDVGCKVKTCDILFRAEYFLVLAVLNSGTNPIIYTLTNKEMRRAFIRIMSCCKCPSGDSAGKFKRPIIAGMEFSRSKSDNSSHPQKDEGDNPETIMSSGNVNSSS
T2 sequence (Q99500 whole entry): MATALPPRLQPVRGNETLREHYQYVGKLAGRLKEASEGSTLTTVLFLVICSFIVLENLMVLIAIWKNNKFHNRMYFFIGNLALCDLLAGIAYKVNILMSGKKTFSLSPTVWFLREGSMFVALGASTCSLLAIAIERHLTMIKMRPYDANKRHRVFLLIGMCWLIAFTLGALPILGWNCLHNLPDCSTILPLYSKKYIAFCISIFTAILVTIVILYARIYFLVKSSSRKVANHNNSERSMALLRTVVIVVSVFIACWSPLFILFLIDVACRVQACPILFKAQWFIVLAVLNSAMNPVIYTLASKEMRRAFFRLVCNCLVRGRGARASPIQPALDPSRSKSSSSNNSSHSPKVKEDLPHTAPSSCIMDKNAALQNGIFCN

Broadly, the EC50 is the concentration that produces a half-maximal response. What is called IC50 is the point on the concentration scale where inhibition reaches its midpoint. Take `CCCCCCCCCCCCCCCCNC(CO)(CO)CO` [AD2900]: the “cell viability, Molt4” value in the experiment with Molt4 was “reduced cell viability could be detected even at lower concentrations”. In addition, at S1P1 [1], the EC50 was greater than 50 µM. The IC50 amounted to 6.2 µM at S1P3 and 3.8 µM at S1P1 [2].
